A word on the kinetic solubility: it is solubility judged after dilution from a stock solution rather than from solid.

This is an account of results in PubChem BioAssay AID1996.

Values after ≈ are worked out from the molar mass of the structure shown. Where only a bound is given, the exact number is not on record here.

The conditions of the data set: buffer; pH 7.4; 200.0 µM.
Take `O=C(O)CCSC(=S)N1CCOCC1`: the kinetic solubility was 29.3 µg/mL (≈ 125 µM).
`O=C(/C=C/c1ccccc1)NCc1ccco1` had a solubility (kinetic) of more than 34.1 µg/mL.
In the case of `CCN(CC(=O)NC(C)C)C(=O)[C@@H](NC(=O)c1ccco1)C(C)C` it was more than 50.6 µg/mL.
Take `CN(C(=O)c1ccccc1-c1ccccc1C(=O)O)c1ccccc1`: the kinetic solubility worked out at 44.5 µg/mL (≈ 134 µM).
`Cc1ccc(OCC(=O)Nc2cc(C(C)(C)C)on2)cc1C` had a solubility (kinetic) of 3.9 µg/mL (≈ 12.9 µM).
Consider `NC(=O)CN(C/C=C/c1ccccc1)C/C=C/c1ccccc1`, for which the kinetic solubility is 7.4 µg/mL (≈ 24.2 µM).
Molecule `COc1ccc(C2(CNC(=O)c3ccccc3)CCOCC2)cc1` had a solubility (kinetic) of more than 48.8 µg/mL.
In the case of `O=C(/C=C/c1ccccc1)NC(=O)c1ccccc1O` it was 1.4 µg/mL (≈ 5.24 µM).
In turn, `O=C(CN1C(=O)NC2(CCCCCC2)C1=O)NCc1ccccc1Cl` had a solubility (kinetic) of more than 54.6 µg/mL.
For the molecule `OC1CCCN(CC(O)c2ccccc2)C1` (stereo not given), the kinetic solubility is 25 µg/mL (≈ 113 µM).
Take `O=C(NCC(c1ccco1)N1CCOCC1)c1ccc(F)cc1` (stereo not given): the solubility (kinetic) was more than 47.8 µg/mL.
`O=C(NCCO)Nc1ccc(Cl)cc1` returned a solubility (kinetic) of 29 µg/mL (≈ 135 µM).
On to `CCc1c(C)sc(NC(=O)c2ccco2)c1C#N`, for which the solubility (kinetic) came to 17 µg/mL (≈ 65.3 µM).
For the molecule `Cc1ccc(NC(=S)Nc2cc(C)on2)cc1`, the solubility (kinetic) was 31.8 µg/mL (≈ 129 µM).
For the molecule `COc1ccc(NC(=O)c2cccnn2)cc1`, the solubility (kinetic) is more than 34.4 µg/mL.
In the case of `Cc1cc(=O)c2cc(NC(=O)c3ccccc3Cl)ccc2[nH]1`, the kinetic solubility is 9.4 µg/mL (≈ 30.1 µM).
Consider `COc1ccc(OC)c(S(=O)(=O)NCCCc2ccccc2)c1`, for which the kinetic solubility turned out to be 27.4 µg/mL (≈ 81.7 µM).
`COc1ccccc1C(=O)C1CCCN(C(=O)Nc2ccccc2F)C1` (stereo not given) returned a solubility (kinetic) of more than 53.5 µg/mL.
`O=C(COc1ccc2ccccc2c1Br)N1CCCC1` gave a kinetic solubility of 45.4 µg/mL (≈ 136 µM).
In the case of `CC12CN3CC(C)(CN(C1)C3c1ccc3c(c1)OCO3)C2O` (stereo not given) it was more than 45.4 µg/mL; in that of `CCN(CC(=O)NCc1cccs1)C(=O)Cc1ccc(C)c(C)c1`, more than 51.7 µg/mL.
Under `C=CCc1cccc(CNc2nc3ccccc3n2C)c1O` stands 0.3 µg/mL (≈ 1.02 µM); under `CCOc1cc(C2C(C#N)=C(N)Oc3cc(N)ccc32)ccc1O` (stereo not given), 33.5 µg/mL (≈ 104 µM); under `Cc1nnc(SCC(=O)Nc2ccccc2)n(N)c1=O`, more than 43.7 µg/mL.
For the molecule `O=c1[nH]c(SCCN2CCOCC2)nc(O)c1-c1ccccc1`, the solubility (kinetic) is 44.2 µg/mL (≈ 133 µM).
`COc1ccccc1/C=C/c1ccc2cccc(O)c2n1` yielded a kinetic solubility of 11.2 µg/mL (≈ 40.4 µM).
`Cn1c(O)c(C(=Nc2ccc(F)cc2)c2ccccc2Cl)c(=O)n(C)c1=O` registered a solubility (kinetic) of 1.8 µg/mL (≈ 4.64 µM).
Turning to `CCCc1cc(=O)[nH]c(SCC(=O)Nc2sc3c(c2C(N)=O)CCCC3)n1`, the kinetic solubility was 9 µg/mL (≈ 22.1 µM).
In the case of `Cc1ccc(S(=O)(=O)Nc2cccc(S(=O)(=O)Nc3ccccc3C(=O)O)c2)c(C)c1` it was more than 69.1 µg/mL; in that of `COc1cc2c(cc1OC)CN(CC(=O)NC(=O)NC1CCCCC1)CC2`, more than 56.3 µg/mL; in that of `CC(=O)N(c1cccc(Cl)c1)c1nc(C)cc(C)c1C#N`, more than 45 µg/mL.
For the molecule `O=C(COC(=O)Cc1ccccc1F)Nc1ccc(F)cc1F`, the solubility (kinetic) is 47.9 µg/mL (≈ 148 µM).
In the case of `O=C(Nc1cccc2ncccc12)c1ccccc1Cl` it was 18.5 µg/mL (≈ 65.4 µM).
As to `CN1CCN(CCCNC(=O)CN2C(=O)COc3ccccc32)CC1`, the kinetic solubility turned out to be 37.6 µg/mL (≈ 109 µM).
`O=C(NC(=S)Nc1ccccc1)c1cccs1` had a kinetic solubility of 1.4 µg/mL (≈ 5.34 µM).
Turning to `O=CC1=C(N2CCOCC2)/C(=C/c2ccc(Cl)cc2)CC1`, the kinetic solubility was determined as 32.1 µg/mL (≈ 106 µM).
`Cc1cc(C)cc(OCC(=O)O/N=C(\N)c2ccccc2Cl)c1` registered a solubility (kinetic) of 13.3 µg/mL (≈ 40 µM).
Take `Cc1ccnc(N2CCC(C(=O)NNC(=O)c3ccncc3)CC2)n1`: the kinetic solubility was more than 51.1 µg/mL.
As to `Cc1ccc(CNS(=O)(=O)c2ccc([N+](=O)[O-])cc2)cc1`, the kinetic solubility was found to be 1.8 µg/mL (≈ 5.88 µM).
The molecule `CCc1c(C(=O)Nc2ccccc2C(N)=O)csc1C` displayed a solubility (kinetic) of 3.6 µg/mL (≈ 12.5 µM).
In turn, `O=C(Nc1ccc(Cl)cc1)Nc1ccc(C(=O)N2CCOCC2)cc1` came in with a kinetic solubility of 1.1 µg/mL (≈ 3.06 µM).
Under `COc1ccc(/C=C/C(=O)NC(CCSC)C(=O)O)cc1` (stereo not given) stands more than 46.4 µg/mL; under `COc1ccccc1N(Cc1cc(=O)[nH]c2ccccc12)C(C)=O`, more than 48.4 µg/mL.
Under `Cc1csc(NC(=S)NC(=O)c2ccccc2)n1` stands 1 µg/mL (≈ 3.61 µM); under `Cc1nc(N=C(N)N)nc2c(C)cccc12`, 29.8 µg/mL (≈ 138 µM).
Molecule `Brc1ccc(CN2CCCCCC2)cc1` came in with a kinetic solubility of 12.5 µg/mL (≈ 46.6 µM).
Molecule `CC1=C(C)C(OCCCl)N(c2cc(O)c(Cl)cc2F)C1=O` (stereo not given) returned a kinetic solubility of 46.3 µg/mL (≈ 139 µM).
For `CC(C)(C)C(=O)Nc1ccc(N2CCN(S(C)(=O)=O)CC2)cc1`, the kinetic solubility is 17.6 µg/mL (≈ 51.8 µM).
In the case of `CCOC(=O)C1=C(c2ccccc2)NC(=O)NC1c1ccsc1` (stereo not given) it was 43.9 µg/mL (≈ 134 µM); in that of `Cc1ccc(CNC(=O)c2cncc(Br)c2)cc1`, 9.6 µg/mL (≈ 31.5 µM); in that of `CN(CC(=O)N1CCc2ccccc2C1)c1ccccc1`, more than 42.1 µg/mL.
Consider `CC(NC(=O)CCSCc1ccccc1F)c1ccccc1` (stereo not given), for which the kinetic solubility was 44.5 µg/mL (≈ 140 µM).
With `CCCCOc1ccc(C(=O)N=c2sccn2C)cc1OC`, the solubility (kinetic) amounted to 35.7 µg/mL (≈ 111 µM).
The molecule `CCCn1c(N)c(C(=O)COc2ccc(Br)cc2F)c(=O)n(C)c1=O` displayed a solubility (kinetic) of 3.9 µg/mL (≈ 9.42 µM).
In the case of `CC(C)C(O)(C(=O)NNc1ccccc1)C(C)C` it was more than 37.6 µg/mL; in that of `O=C(NC(Cc1c[nH]c2ccccc12)C(=O)O)c1ccc2c(c1)OCO2` (stereo not given), more than 52.9 µg/mL; in that of `CNC(=S)/N=C/NOCc1c(Cl)cccc1Cl`, 9.5 µg/mL (≈ 32.5 µM).
Take `CC(C)NC(=O)c1ccc(CSCc2ccccc2Cl)o1`: the kinetic solubility was more than 48.6 µg/mL.
As to `O=S(=O)(c1ccccc1)N1CCN(Cc2c(O)ccc3ccccc23)CC1`, the solubility (kinetic) came out at 6.6 µg/mL (≈ 17.3 µM).
`CN=C(C)/C(C(=O)OC)=C(/O)c1ccc(Cl)cc1Cl` yielded a solubility (kinetic) of 34 µg/mL (≈ 113 µM).
As for `Cc1ccc(S(=O)(=O)NC2CCCCCCC2)cc1`, the kinetic solubility turned out to be 24.3 µg/mL (≈ 86.3 µM).
With `Clc1nccc(NCc2ccccc2)n1`, the solubility (kinetic) was more than 33 µg/mL.
With `Cc1ccc(OCCCC(=O)NC(C)c2ccccc2)c(C)c1` (stereo not given), the solubility (kinetic) came out at 22.6 µg/mL (≈ 72.6 µM).
As to `O=S(=O)(c1ccccc1)N(CC1CO1)c1ccccc1` (stereo not given), the kinetic solubility is more than 43.4 µg/mL.
For the molecule `CCCN1CCC(NC(=O)Nc2cc(Cl)ccc2OC)CC1`, the solubility (kinetic) amounted to 47.6 µg/mL (≈ 146 µM).
With `CC(C)(C)C(=O)N1CCN(C(=O)c2ccco2)CC1`, the solubility (kinetic) was more than 39.6 µg/mL.
On to `Cc1cnc(C(=O)Nc2cc(F)ccc2C)cn1`, for which the solubility (kinetic) amounted to 15.6 µg/mL (≈ 63.6 µM).
`OC1=C(O)c2nc3cc(C(F)(F)F)ccc3nc21` came in with a kinetic solubility of more than 38.1 µg/mL.
`Cn1c(=O)n(Cc2ccccc2Cl)c(=O)c2c1[nH]c(=S)n2C` came in with a kinetic solubility of more than 50.5 µg/mL.
On to `CC1(C)CC(=O)C=C(Nc2ccc(Cl)cc2)C1`, for which the kinetic solubility was 34.2 µg/mL (≈ 137 µM).
Under `c1ccc(SCc2cn3cccnc3n2)nc1` stands more than 36.3 µg/mL.
In the case of `CC(=O)SC1CC(=O)N(c2ccc(C(C)(C)C)cc2)C1=O` (stereo not given), the solubility (kinetic) amounted to 5.7 µg/mL (≈ 18.7 µM).
Take `Cc1sc(NC(=S)NC(=O)c2ccco2)c(C#N)c1C`: the solubility (kinetic) turned out to be 1.1 µg/mL (≈ 3.6 µM).
In the case of `COc1ccc(C(C#N)=C2C=CC(=NO)C=C2)cc1`, the kinetic solubility came out at 4.2 µg/mL (≈ 16.6 µM).
Under `Cc1cc(-c2onc3ccc(Cl)cc23)ccc1O` stands 16.3 µg/mL (≈ 62.8 µM); under `O=C(O)c1cccc(Nc2ccc3nonc3c2[N+](=O)[O-])c1`, 35.9 µg/mL (≈ 120 µM).
In the case of `COc1ccc(C(=O)NCCNC(=O)c2cnccn2)cc1OC` it was more than 49.6 µg/mL; in that of `O=C(COC(=O)CCC1CCCC1)Nc1ccc(F)cc1`, 5.9 µg/mL (≈ 20.1 µM); in that of `Cc1ccc(NC(=O)CN2C(=O)C3CC=C(Cl)CC3C2=O)cc1` (stereo not given), more than 49.9 µg/mL.
`Cc1ccc(CNC(=O)C(c2ccccc2)c2ccccc2)cc1` had a solubility (kinetic) of less than 0.7 µg/mL.
In the case of `O=C(NC1=NCCS1)c1ccc(F)c(S(=O)(=O)N2CCOCC2)c1` it was more than 56 µg/mL; in that of `COc1ccc(N2CCC(CNC(=O)Nc3cccc(OC)c3)C2)cc1` (stereo not given), 34.5 µg/mL (≈ 97.1 µM); in that of `O=C(Nc1ccc(S(=O)(=O)Nc2ncccn2)cc1)C(F)(F)F`, more than 51.9 µg/mL.
With `Cc1nc(Nc2ccccc2O)c2oc3ccccc3c2n1`, the solubility (kinetic) was less than 0.2 µg/mL.
Molecule `Cc1ccc(C(=O)OCC(=O)N2CCCCCC2)c(O)c1` showed a solubility (kinetic) of 14 µg/mL (≈ 48.1 µM).
For `O=C(COc1ccc(Cl)cc1)NCCc1cnc[nH]1`, the kinetic solubility is more than 42 µg/mL.
Take `Cc1ccc(C)c2c1N(Cc1ccccc1)C(=O)C21OCCO1`: the solubility (kinetic) was less than 0.7 µg/mL.
As for `Nc1ccccc1N=Cc1ccc(-c2cccc(Cl)c2)o1`, the kinetic solubility is less than 0.3 µg/mL.
Take `O=C(/C=C/c1cc(Br)ccc1F)OCC(=O)N1CCOCC1`: the kinetic solubility was more than 55.8 µg/mL.
The molecule `Cc1cccc(C)c1NC(=O)NC1(C(=O)NCc2ccncc2)CCCCC1` registered a kinetic solubility of more than 57.1 µg/mL.
`COc1ccc(N(CC(=O)NCCSc2ccccc2)S(=O)(=O)c2ccccc2)c(OC)c1`: the kinetic solubility stood at 3.6 µg/mL (≈ 7.4 µM).
With `Cc1cc(C)c(S(=O)(=O)c2ccccc2)c(=O)[nH]1`, the kinetic solubility was more than 39.5 µg/mL.
In the case of `CCCCCn1c(N)c(C(=O)NCc2cccs2)c2nc3ccccc3nc21` it was 0.9 µg/mL (≈ 2.29 µM).
In the case of `CC(C)(C)C(=O)Nc1cccc(-c2ncon2)c1` it was more than 36.8 µg/mL; in that of `COc1cccc(OC)c1C(=O)NC(C)CCc1ccccc1` (stereo not given), 44.2 µg/mL (≈ 141 µM); in that of `CCOC(=O)C1CCN(Cc2cc(=O)oc3cc(C)ccc23)CC1`, 43.1 µg/mL (≈ 131 µM).
In the case of `COCCNC(=O)c1cc(Sc2nnc(C)s2)nc2ccccc12` it was more than 54.1 µg/mL.
In turn, `Cc1cc(C)c(S(=O)(=O)Nc2ccccn2)c(C)c1` showed a kinetic solubility of 4.7 µg/mL (≈ 17 µM).
Regarding `O=C(O)c1cccc(OCCN2CCCC2=O)c1`, the solubility (kinetic) was 34.6 µg/mL (≈ 139 µM).
The molecule `Nc1ccccc1SC1CC(=O)N(c2ccc3c(c2)OCCO3)C1=O` (stereo not given) showed a kinetic solubility of 0.9 µg/mL (≈ 2.53 µM).
`CS(=O)(=O)N1CCC(C(=O)Nc2ccc(F)c(Cl)c2)CC1` came in with a kinetic solubility of more than 50.2 µg/mL.
Consider `CCCCCC(O)(CCN1CCCCC1)c1ccc(OCC)cc1.Cl` (stereo not given), for which the solubility (kinetic) came to 53.5 µg/mL.
In the case of `CC(C)=CC(=O)OCC(=O)Nc1cc(C)cc(C)c1` it was 3.7 µg/mL (≈ 14.2 µM); in that of `NC(=O)C[n+]1cccc(/C=N/O)c1.[Cl-]`, more than 32.3 µg/mL.
The molecule `CN(C1CCCCC1)S(=O)(=O)c1ccc(=S)[nH]c1` registered a kinetic solubility of 22.8 µg/mL (≈ 79.6 µM).
